The record followed here is ChEMBL document CHEMBL1201862, “PubChem BioAssay data set” (2004).

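48-hour exposure; five concentrations; linearly interpolated endpoints. Here, GI50 denotes the concentration required for 50% inhibition of growth.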 Activity calls are given as the source filed them. Cut-off read from the data, not from the text of the source: active = GI50 up to about 1.1 µM and inactive = higher. Where only a bound is given, the exact number is not on record here.

Some test systems named below: ACHN; BT-549; COLO 205; HL-60; HOP-62; LOX IMVI; MCF7; MDA-MB-435; NCI-H226; NCI-H23; NCI-H522; NCI/ADR-RES; OVCAR-8; RPMI-8226; SF-539; SW-620; T47D; UO-31; HCC 2998; SK-MEL-2.
Common to all, as to assay: NCI anticancer screen, dose series, 48 h

Regarding `O=C(O)CC1OCC=C2CN3CCC45c6ccccc6NC4C1C2CC35` (stereo not drawn), the GI50 in the assay with ACHN, in the assay with BT-549, with COLO 205, in the assay on HL-60, in the assay on HOP-62 and in the assay with LOX IMVI was > 100 µM (inactive) throughout. Also, the GI50 with MCF7, in the assay on MDA-MB-435, with NCI-H226, in the assay on NCI-H23, with NCI-H522 and in the assay on NCI/ADR-RES was > 100 µM (inactive) each time. Further, the GI50 in the assay with OVCAR-8, with RPMI-8226, in the assay on SF-539, in the assay with SW-620, in the assay on T47D and in the assay with UO-31 was > 100 µM (inactive) each time.
As for `CC1(C)OC(CP(c2ccccc2)c2ccccc2)C(CP(c2ccccc2)c2ccccc2)O1` (stereo not drawn), the GI50 in the assay with ACHN was 2.12 µM (inactive); in the assay with BT-549 it was 2.93 µM (inactive); in the assay with COLO 205, 0.0792 µM (active); in the assay on HCC 2998, 0.774 µM (active); in the assay with HL-60, 0.0443 µM (active); in the assay on HOP-62, 0.418 µM (active). Also, the GI50 in the assay on LOX IMVI was 0.224 µM (active); in the assay on MCF7, 0.0869 µM (active); in the assay on MDA-MB-435 it was 2.16 µM (inactive); in the assay with NCI-H23 it was 0.485 µM (active); in the assay on NCI-H522, 0.298 µM (active); in the assay with NCI/ADR-RES, > 100 µM (inactive). Moreover, the GI50 was 0.741 µM (active) with OVCAR-8; 1.17 µM (inactive) in the assay on RPMI-8226; 2.1 µM (inactive) in the assay with SF-539; 1.81 µM (inactive) with SK-MEL-2; 1.17 µM (inactive) with SW-620; 0.345 µM (active) in the assay on T47D. In the assay with UO-31, the GI50 was 1.69 µM (inactive).
Regarding `COC(=O)c1nn2ccc3ccccc3c2c1C(=O)OC`, the GI50 is > 100 µM (inactive) in the assay with ACHN; 63.5 µM (inactive) in the assay with BT-549; > 100 µM (inactive) in the assay on COLO 205; 21.3 µM (inactive) with HL-60; 50.8 µM (inactive) with HOP-62; 83.6 µM (inactive) with LOX IMVI. Also, the GI50 was > 100 µM (inactive) in the assay with MCF7; 76.7 µM (inactive) in the assay with MDA-MB-435; > 100 µM (inactive) with NCI-H226; > 100 µM (inactive) in the assay with NCI-H23; > 100 µM (inactive) in the assay with NCI-H522; 62.7 µM (inactive) in the assay with NCI/ADR-RES. Also, the GI50 was > 100 µM (inactive) in the assay with OVCAR-8; > 100 µM (inactive) with SF-539; > 100 µM (inactive) in the assay with SK-MEL-2; > 100 µM (inactive) in the assay with SW-620; > 100 µM (inactive) in the assay on T47D; 32.2 µM (inactive) in the assay on UO-31.
In the case of `Cc1cccc(-n2c(C)nc3ccc(NC(=S)Nc4ccccc4)cc3c2=O)c1`, the GI50 was 53.5 µM (inactive) with ACHN; 48.5 µM (inactive) with BT-549; 30.6 µM (inactive) in the assay with COLO 205; 25 µM (inactive) in the assay with HCC 2998; 37.4 µM (inactive) in the assay with HL-60; > 100 µM (inactive) in the assay with HOP-62. For the same compound, the GI50 in the assay on LOX IMVI is 37.2 µM (inactive); in the assay with MCF7, 67 µM (inactive); in the assay with MDA-MB-435, 56 µM (inactive); in the assay with NCI-H226, 81.1 µM (inactive); in the assay with NCI-H23, 64.9 µM (inactive); with NCI-H522, 51.2 µM (inactive). Besides, the GI50 in the assay on NCI/ADR-RES was 84.1 µM (inactive); in the assay on OVCAR-8, 74.3 µM (inactive); with RPMI-8226, 35.2 µM (inactive); in the assay with SK-MEL-2, 39 µM (inactive); with SW-620 it was > 100 µM (inactive); in the assay with T47D, 38 µM (inactive). For the same compound, the GI50 in the assay with UO-31 is 47.4 µM (inactive).
For `C[C@]12CC[C@H]3[C@@H](CC=C4C[C@@H](N5CCCC5)CC[C@@]43C)[C@@H]1C[C@H](N1CCCCC1)[C@@H]2O`, the GI50 was > 100 µM (inactive) in the assay with ACHN; > 100 µM (inactive) with BT-549; 93.3 µM (inactive) in the assay on COLO 205; 31.6 µM (inactive) in the assay with HCC 2998; 28.2 µM (inactive) in the assay with HL-60; > 100 µM (inactive) with HOP-62. For the same compound, the GI50 with LOX IMVI is 33.3 µM (inactive); in the assay with MCF7, > 100 µM (inactive); in the assay on MDA-MB-435, 45.4 µM (inactive); with NCI-H226, > 100 µM (inactive); in the assay on NCI-H23, > 100 µM (inactive); with NCI-H522, > 100 µM (inactive). Further, the GI50 in the assay on NCI/ADR-RES was > 100 µM (inactive); in the assay on OVCAR-8 it was > 100 µM (inactive); in the assay with RPMI-8226 it was 26.8 µM (inactive); in the assay with SF-539, 39.7 µM (inactive); in the assay with SW-620, > 100 µM (inactive); in the assay with T47D, > 100 µM (inactive). In the assay with UO-31, the GI50 is > 100 µM (inactive).
With `NC(=S)N/N=C1\C(=O)C=C(Nc2ccc(Cl)cc2Cl)c2ccccc21`, the GI50 in the assay on ACHN was 10.3 µM (inactive); with BT-549, 18.7 µM (inactive); in the assay on COLO 205, 35.9 µM (inactive); in the assay on HCC 2998, > 100 µM (inactive); with HL-60, 84.3 µM (inactive); in the assay with HOP-62, 4.34 µM (inactive). Besides, the GI50 with LOX IMVI is 25.3 µM (inactive); with MCF7, 48.9 µM (inactive); in the assay with MDA-MB-435, > 100 µM (inactive); in the assay with NCI-H226, 33.6 µM (inactive); in the assay with NCI-H23, 23.2 µM (inactive); with NCI/ADR-RES, 33.6 µM (inactive). Moreover, the GI50 in the assay on OVCAR-8 was 21.9 µM (inactive); in the assay on SF-539, 7.38 µM (inactive); with SK-MEL-2 it was 39.3 µM (inactive); with SW-620, > 100 µM (inactive); in the assay on T47D, 23.5 µM (inactive); in the assay with UO-31, 92 µM (inactive).
Turning to `COc1cc(/C=C2\N=C(c3ccccc3)N(c3ccc4c(c3)Sc3cc(N5C(=O)/C(=C/c6cc(OC)c(OC)c(OC)c6)N=C5c5ccccc5)ccc3N4)C2=O)cc(OC)c1OC`, the GI50 with ACHN was 19 µM (inactive); in the assay on BT-549 it was 23.4 µM (inactive); in the assay on COLO 205 it was 20.9 µM (inactive); in the assay on HCC 2998, 21.2 µM (inactive); in the assay on HL-60, 26.9 µM (inactive); in the assay with HOP-62 it was 25.5 µM (inactive). The GI50 in the assay on LOX IMVI is 22.4 µM (inactive); in the assay on MCF7 it was 21 µM (inactive); in the assay on MDA-MB-435, 18 µM (inactive); with NCI-H23, 19.3 µM (inactive); in the assay with NCI-H522 it was 17.1 µM (inactive); with NCI/ADR-RES, 31 µM (inactive). Moreover, the GI50 is 18.5 µM (inactive) in the assay with OVCAR-8; 27.4 µM (inactive) in the assay with RPMI-8226; 18.5 µM (inactive) in the assay with SK-MEL-2; 42.7 µM (inactive) with SW-620; 25.2 µM (inactive) with T47D; 31.3 µM (inactive) in the assay with UO-31.
With `Cc1c2ccccc2c(C2C3C(=O)N(c4cccc5ccccc45)C(=O)C3ON2Cc2ccc(CC(N)=O)cc2)c2ccccc12` (stereo not drawn), the GI50 in the assay with ACHN is 18.5 µM (inactive); with BT-549 it was 30.2 µM (inactive); with COLO 205 it was 7.78 µM (inactive); in the assay on HL-60, 16.1 µM (inactive); with HOP-62, 23 µM (inactive); in the assay on LOX IMVI it was 18.9 µM (inactive). The GI50 in the assay on MCF7 is 14.8 µM (inactive); with MDA-MB-435, 17.9 µM (inactive); in the assay with NCI-H226, 13.4 µM (inactive); in the assay with NCI-H23 it was 25.1 µM (inactive); in the assay with NCI-H522, 18.9 µM (inactive); in the assay on NCI/ADR-RES it was 39.7 µM (inactive). Moreover, the GI50 in the assay on OVCAR-8 was 22.4 µM (inactive); in the assay with SF-539, 12 µM (inactive); in the assay on SK-MEL-2 it was 10.8 µM (inactive); with SW-620, 20.3 µM (inactive); with T47D it was 15 µM (inactive); with UO-31, 24.7 µM (inactive).
In the case of `COC(=O)C1(C(=O)OC)N=C(C)OC1C(C)C` (stereo not drawn), the GI50 is > 100 µM (inactive) with ACHN; > 100 µM (inactive) with BT-549; > 100 µM (inactive) with COLO 205; > 100 µM (inactive) in the assay with HCC 2998; 37.5 µM (inactive) in the assay with HL-60; > 100 µM (inactive) in the assay with HOP-62. The GI50 in the assay with LOX IMVI, with MCF7, in the assay on MDA-MB-435, in the assay on NCI-H226, in the assay with NCI-H23 and with NCI/ADR-RES was > 100 µM (inactive) in each case. Moreover, the GI50 in the assay with OVCAR-8, in the assay with RPMI-8226, with SK-MEL-2, in the assay on SW-620, in the assay on T47D and with UO-31 was > 100 µM (inactive) in each case.
In the case of `CCCCNC(=O)OCCN=c1c2ccccc2ccc2ccccc12`, the GI50 in the assay with ACHN, in the assay with BT-549, in the assay on COLO 205, in the assay on HCC 2998, in the assay with HL-60 and in the assay with HOP-62 was > 100 µM (inactive) each time. Moreover, the GI50 in the assay on LOX IMVI, in the assay on MCF7, in the assay with MDA-MB-435, in the assay with NCI-H226, with NCI-H23 and in the assay with NCI/ADR-RES was > 100 µM (inactive) each time. For the same compound, the GI50 is > 100 µM (inactive) in the assay with OVCAR-8; > 100 µM (inactive) in the assay with RPMI-8226; > 100 µM (inactive) in the assay with SF-539; > 100 µM (inactive) in the assay with SK-MEL-2; > 100 µM (inactive) in the assay with SW-620; 75 µM (inactive) in the assay on T47D. In addition, the GI50 in the assay on UO-31 was > 100 µM (inactive).
For the compound `CCOC(=O)c1nc2ccccc2nc1NCc1ccc(OC)cc1`, the GI50 with ACHN, in the assay with BT-549, in the assay on COLO 205, with HCC 2998, in the assay with HL-60 and with HOP-62 was > 100 µM (inactive) each time. Also, the GI50 in the assay with LOX IMVI is > 100 µM (inactive); with MCF7, 47.4 µM (inactive); in the assay with MDA-MB-435, > 100 µM (inactive); in the assay on NCI-H226, > 100 µM (inactive); with NCI-H23 it was > 100 µM (inactive); with NCI-H522 it was 56.9 µM (inactive). Further, the GI50 in the assay with NCI/ADR-RES is 68.1 µM (inactive); in the assay with OVCAR-8, > 100 µM (inactive); with RPMI-8226 it was > 100 µM (inactive); in the assay with SF-539 it was > 100 µM (inactive); with SW-620, > 100 µM (inactive); in the assay on T47D, 80.9 µM (inactive). Also, the GI50 with UO-31 was > 100 µM (inactive).
